# According to US20100249132A1, “IMIDAZOLE DERIVATIVES” (MERCK PATENT GESELLSCHAFT MIT BESCHRANKTER HAFTUNG, priority 2007, published 2010):
# Target: T1, recombinant autotaxin (Homo sapiens, UniProt Q13822)
# T1 construct: made in house; host or cells: Hi5 insect cells (baculovirus)
# Assay: Autotaxin test (enzyme test), Amplex Red fluorescence
# Type: biochemical
# Details: substrate LPC 75 μM, Amplex Red detection, read-out: IC50 (autotaxin inhibition, enzyme test)
# Experimental: Autotaxin Inhibition (Enzyme Test)
# Autotaxin Test (Enzyme Test)
# The autotaxin activity is measured indirectly using Amplex Red reagent. Amplex Red is measured here as fluorogenic indicator for the H2O2 formed. In detail, autotaxin converts the substrate lysophosphatidylcholine (LPC) into phosphocholine and lysophosphatidylic acid (LPA). After this reaction, the phosphocholine is reacted with alkaline phosphatase to give inorganic phosphate and choline. In the next step, choline is oxidised by choline oxidase to give betaine, with formation of H2O2. H2O2 reacts with Amplex Red reagent in the presence of peroxidase (horseradish peroxidase) in a 1:1 stoichiometry and forms the highly fluorescent resorufin. The fluorescence is measured in a reaction-dependent kinetic mode in order that fluorescent signals from possible other fluorescent substances which are not involved in the reaction can be corrected out.
# 1.5 μl of a standard solution or of the test substances (substances with the name A(n)) in individual concentrations dissolved in 20 mM Hepes pH 7.2 with a maximum of 7.7% of DMSO are pre-incubated together with 10 μl (16 ng) of highly purified recombinant autotaxin in a black microtitre plate provided with 384 wells at 22° C. for 30 min. The reaction is then initiated by addition of 5 μl of L-α-lysophosphatidylcholine (LPC), where the final concentration of LPC is 75 μM. The mixture is incubated at 37° C. for 90 min. After the incubation, Amplex Red reagent, peroxidase (horseradish peroxidase) and choline oxidase is added, and the fluorescence is immediately measured at 612 nm with excitation of 485 nm in a “Tecan Ultra multimode” reader. The activity of autotaxin is calculated indirectly via detection of the H2O2 formed. • Material: • Microtitre plate: PS microplate, 384 wells, small volume, black Corning, Cat #3677 • Protein: recombinant autotaxin (Baculovirale Hi5 Expression) • Substrate: L-α-lysophosphatidylcholine (chicken egg)); Avanti Polar Lipids #830071 P • Standard: C14 LPA, Avanti Polar Lipids, Cat #857120P • Detection reagent: Amplex Red reagent; Invitrogen #A12222; dissolved in 1.923 ml of DMSO peroxidase type VI-A (horseradish) from Sigma #P6782; dissolved in 7.45 ml of test buffer, choline oxidase; Sigma #C5896; dissolved in 2.47 ml of test buffer • Detection reagent mix: 1:100 dilution of Amplex Red reagent in test buffer • Test buffer: 200 mM Tris HCl, Merck, Cat #1.08219, pH 7.9, 0.1% of BSA, lipid-free, Roche Cat #775835
row,IC50 [µM],Structure (SMILES)
1,> 10,"CCc1cccc(C)c1NC(=O)Nc1[nH]c(Cc2ccc(C(=O)O)o2)nc1C(N)=O [Compound A32, 5-{4-Carbamoyl-5-[3-(2-ethyl-6-methylphenyl)-ureido]-1H-imidazol-2-ylmethyl}furan-2-carboxylic acid]"
2,> 10,"NC(=O)c1nc(Cc2ccc(C(=O)O)o2)[nH]c1NC(=O)Nc1ccc2ccccc2c1 [Compound A33, 5-[4-Carbamoyl-5-(3-naphthalen-2-ylureido)-1H-imidazol-2-ylmethyl]furan-2-carboxylic acid]"
3,> 10,"NC(=O)c1nc(Cc2ccc(OCC(=O)O)cc2)[nH]c1NC(=O)Nc1ccc(F)cc1 [Compound A36, (4-{4-Carbamoyl-5-[3-(4-fluorophenyl)ureido]-1H-imidazol-2-ylmethyl}phenoxy)acetic acid]"
4,> 10,"NC(=O)c1nc(Cc2ccc(OCC(=O)O)cc2)[nH]c1NC(=O)Nc1cccc(C(F)(F)F)c1 [Compound A37, (4-{4-Carbamoyl-5-[3-(3-trifluoromethylphenyl)-ureido]-1H-imidazol-2-ylmethyl}phenoxy)acetic acid]"
5,1 to 10,"NC(=O)c1nc(Cc2ccc(OCC(=O)O)cc2)[nH]c1NC(=O)Nc1ccc(C(F)(F)F)cc1 [Compound A38, (4-{4-Carbamoyl-5-[3-(4-trifluoromethylphenyl)-ureido]-1H-imidazol-2-ylmethyl}phenoxy)acetic acid]"
6,1 to 10,"CCCCc1ccc(NC(=O)Nc2[nH]c(Cc3ccc(OCC(=O)O)cc3)nc2C(N)=O)cc1 [Compound A39, (4-{5-[3-(4-Butylphenyl)ureido]-4-carbamoyl-1H-imidazol-2-ylmethyl}phenoxy)acetic acid]"
7,1 to 10,"Cc1ccc(NC(=O)Nc2[nH]c(Cc3ccc(OCC(=O)O)cc3)nc2C(N)=O)cc1 [Compound A40, {4-[4-Carbamoyl-5-(3-p-tolylureido)-1H-imidazol 2-ylmethyl]phenoxy}acetic acid]"
8,1 to 10,"NC(=O)c1nc(Cc2ccc(OCC(=O)O)cc2)[nH]c1NC(=O)Nc1ccc(Cl)cc1 [Compound A41, (4-{4-Carbamoyl-5-[3-(4-chlorophenyl)ureido]-1H-imidazol-2-ylmethyl}phenoxy)acetic acid]"
9,1 to 10,"CCc1ccc(NC(=O)Nc2[nH]c(Cc3ccc(OCC(=O)O)cc3)nc2C(N)=O)cc1 [Compound A42, (4-{4-Carbamoyl-5-[3-(4-ethylphenyl)ureido]-1H imidazol-2-ylmethyl}phenoxy)acetic acid]"
10,1 to 10,"CCCCCc1ccc(NC(=O)Nc2[nH]c(Cc3ccc(OCC(=O)O)cc3)nc2C(N)=O)cc1 [Compound A43, (4-{4-Carbamoyl-5-[3-(4-pentylphenyl)ureido]-1 H-imidazol-2-ylmethyl}phenoxy)acetic acid]"
11,> 10,"NC(=O)c1nc(Cc2ccc(OCC(=O)O)cc2)[nH]c1NC(=O)Nc1cc(C(F)(F)F)ccc1F [Compound A44, (4-{4-Carbamoyl-5-[3-(2-fluoro-5-trifluoromethyl-phenyl)ureido]-1H-imidazol-2-ylmethyl}phenoxy)-acetic acid]"
12,> 10,"NC(=O)c1nc(Cc2ccc(OCC(=O)O)cc2)[nH]c1NC(=O)Nc1ccc(Oc2ccccc2)cc1 [Compound A45, (4-{4-Carbamoyl-5-[3-(4-phenoxyphenyl)ureido]-1H-imidazol-2-ylmethyl}phenoxy)acetic acid]"
13,> 10,"NC(=O)c1nc(-c2ccc(OCC(=O)O)cc2)[nH]c1NC(=O)Nc1ccc(F)cc1 [Compound A46, (4-{4-Carbamoyl-5-[3-(4-fluorophenyl)ureido]-1H-imidazol-2-yl}phenoxy)acetic acid]"
14,> 10,"NC(=O)c1nc(-c2ccc(OCC(=O)O)cc2)[nH]c1NC(=O)Nc1ccccc1Cl [Compound A47, (4-{4-Carbamoyl-5-[3-(2-chlorophenyl)ureido]-1H-imidazol-2-yl}phenoxy)acetic acid]"
15,> 10,"Cc1cccc(C)c1NC(=O)Nc1[nH]c(-c2ccc(OCC(=O)O)cc2)nc1C(N)=O [Compound A48, (4-{4-Carbamoyl-5-[3-(2,6-dimethylphenyl)-ureido]-1H-imidazol-2-yl}phenoxy)acetic acid]"
16,1 to 10,"NC(=O)c1nc(-c2ccc(OCC(=O)O)cc2)[nH]c1NC(=O)Nc1cccc(C(F)(F)F)c1 [Compound A49, (4-{4-Carbamoyl-5-[3-(3-trifluoromethylphenyl)-ureido]-1H-imidazol-2-yl}phenoxy)acetic acid]"
17,1 to 10,"NC(=O)c1nc(-c2ccc(OCC(=O)O)cc2)[nH]c1NC(=O)Nc1ccc(C(F)(F)F)cc1 [Compound A50, (4-{4-Carbamoyl-5-[3-(4-trifluoromethylphenyl)-ureido]-1H-imidazol-2-yl}phenoxy)acetic acid]"
18,1 to 10,"CC(C)c1ccc(NC(=O)Nc2[nH]c(-c3ccc(OCC(=O)O)cc3)nc2C(N)=O)cc1 [Compound A51, (4-{4-Carbamoyl-5-[3-(4-isopropylphenyl)ureido]-1H-imidazol-2-yl}phenoxy)acetic acid]"
19,> 10,"CCCCc1ccc(NC(=O)Nc2[nH]c(-c3ccc(OCC(=O)O)cc3)nc2C(N)=O)cc1 [Compound A52, (4-{5-[3-(4-Butylphenyl)ureido]-4-carbamoyl-1H-imidazol-2-yl}phenoxy)acetic acid]"
20,> 10,"Cc1ccc(NC(=O)Nc2[nH]c(-c3ccc(OCC(=O)O)cc3)nc2C(N)=O)cc1 [Compound A53, {4-[4-Carbamoyl-5-(3-p-tolylureido)-1H-imidazol 2-yl]phenoxy}acetic acid]"
21,1 to 10,"CCc1ccc(NC(=O)Nc2[nH]c(-c3ccc(OCC(=O)O)cc3)nc2C(N)=O)cc1 [Compound A54, (4-{4-Carbamoyl-5-[3-(4-ethylphenyl)ureido]-1H-imidazol-2-yl}phenoxy)acetic acid]"
22,1 to 10,"NC(=O)c1nc(-c2ccc(OCC(=O)O)cc2)[nH]c1NC(=O)Nc1cc(C(F)(F)F)ccc1F [Compound A55, (4-{4-Carbamoyl-5-[3-(2-fluoro-5-trifluoromethyl-phenyl)ureido]-1H-imidazol-2-yl}phenoxy)acetic acid]"
23,1 to 10,"NC(=O)c1nc(COc2ccc(CC(=O)O)cc2)[nH]c1NC(=O)Nc1ccc(C(F)(F)F)cc1 [Compound A56, (4-{4-Carbamoyl-5-[3-(4-trifluoromethylphenyl)-ureido]-1H-imidazol-2-ylmethoxy}phenyl)acetic acid]"
24,1 to 10,"CC(C)c1ccc(NC(=O)Nc2[nH]c(COc3ccc(CC(=O)O)cc3)nc2C(N)=O)cc1 [Compound A57, (4-{4-Carbamoyl-5-[3-(4-isopropylphenyl)ureido]-1H-imidazol-2-ylmethoxy}phenyl)acetic acid]"
25,> 10,"Cc1ccc(NC(=O)Nc2[nH]c(COc3ccc(CC(=O)O)cc3)nc2C(N)=O)cc1 [Compound A58, {4-[4-Carbamoyl-5-(3-p-tolylureido)-1H-imidazol 2-ylmethoxy]phenyl}acetic acid]"
26,> 10,"NC(=O)c1nc(COc2ccc(CC(=O)O)cc2)[nH]c1NC(=O)Nc1ccc(Cl)cc1 [Compound A59, (4-{4-Carbamoyl-5-[3-(4-chlorophenyl)ureido]-1H-imidazol-2-ylmethoxy}phenyl)acetic acid]"
27,1 to 10,"Cc1ccc(NC(=O)Nc2[nH]c(COc3ccc(CC(=O)O)cc3)nc2C(N)=O)c(C)c1 [Compound A60, (4-{4-Carbamoyl-5-[3-(2,4-dimethylphenyl)-ureido]-1H-imidazol-2-ylmethoxy}phenyl)acetic acid]"
